Values of other authors in patent publication US20010037025A1, “New compounds, their preparation and use” (priority 1998, published 2001).

System: RAR
Conditions: literature statement, Heyman et al. Cell 1992

In the case of `CC1=C(/C=C/C(C)=C/C=C/C(C)=C/C(=O)O)C(C)(C)CCC1` [all-trans RA], the “activation of / selectivity for RAR” value is given as “displays selectivity for RAR”.
